From ChEMBL document CHEMBL1135099, “Synthesis and antinephritic activities of quinoline-3-carboxamides and related compounds” (2002)
Active and inactive are the calls of the source. The calls are words filed in the database; no cut-off is given here.

Assays:
Mus musculus [1] = assay: Percent inhibition of proteinuria in mice, perorally dose of 32 mg/kg; format: functional; conditions: route oral
Mus musculus [2] = assay: Percent inhibition of proteinuria by compound dose of 100 mg/kg given perorally to murine in chronic graft-versus-host-disease test; format: functional; conditions: route oral
Mus musculus [3] = assay: Percent inhibition of proteinuria by compound dose of 0.1 mg/kg given perorally to murine in chronic graft-versus-host-disease test; format: functional; conditions: route oral
Mus musculus [4] = assay: Percent inhibition of anti-DNA antibody was evaluated by ELISA technique as a measure of auto-immune disease after injection of compound dose of 1 mg/kg in murine; format: functional
Mus musculus [5] = assay: Percent inhibition of proteinuria by compound dose of 1 mg/kg given perorally to murine in chronic graft-versus-host-disease test; format: functional; conditions: route oral
Mus musculus [6] = assay: Percent inhibition of anti-DNA antibody was evaluated by ELISA technique as a measure of auto-immune disease after injection of compound dose of 0.1 mg/kg in murine; format: functional
Mus musculus [7] = assay: Percent inhibition of anti-DNA antibody was evaluated by ELISA technique as a measure of auto-immune disease after injection of compound dose of 10 mg/kg in murine; format: functional
Mus musculus [8] = assay: Percent inhibition of proteinuria by compound dose of 10 mg/kg given perorally to murine in chronic graft-versus-host-disease test; format: functional; conditions: route oral
Mus musculus [9] = assay: Percent inhibition of proteinuria by compound dose of 32 mg/kg given perorally to MRL/1 mice; format: functional; conditions: route oral
Mus musculus [10] = assay: Percent inhibition of anti-DNA antibody was evaluated by ELISA technique as a measure of auto-immune disease after injection of compound dose of 1 mg/kg in MRL/1 mice; format: functional
Mus musculus [11] = assay: Percent inhibition of anti-DNA antibody was evaluated by ELISA technique as a measure of auto-immune disease after injection of compound dose of 100 mg/kg in murine; format: functional
Mus musculus [12] = assay: Percent inhibition of proteinuria by compound dose of 10 mg/kg given perorally to MRL/1 mice; format: functional; conditions: route oral
Mus musculus [13] = assay: Percent inhibition of anti-DNA antibody was evaluated by ELISA technique as a measure of auto-immune disease after injection of compound dose of 32 mg/kg in MRL/1 mice; format: functional
Mus musculus [14] = assay: Percent inhibition of anti-DNA antibody was evaluated by ELISA technique as a measure of auto-immune disease after injection of compound dose of 32 mg/kg in murine; format: functional
Mus musculus [15] = assay: Percent inhibition of proteinuria by compound dose of 100 mg/kg given perorally to MRL/1 mice; format: functional; conditions: route oral
Mus musculus [16] = assay: Percent inhibition of proteinuria by compound dose of 3.2 mg/kg given perorally to MRL/1 mice; Inactive; format: functional, organism-based; set-up: dose 3.2 mg/kg
Mus musculus [17] = assay: Percent inhibition of anti-DNA antibody was evaluated by ELISA technique as a measure of auto-immune disease after injection of compound dose of 3.2 mg/kg in MRL/1 mice; format: functional
Mus musculus [18] = assay: Percent inhibition of proteinuria by compound dose of 1 mg/kg given perorally to MRL/1 mice; Inactive; format: functional, organism-based; set-up: dose 1 mg/kg
Mus musculus [19] = assay: Percent inhibition of anti-DNA antibody was evaluated by ELISA technique as a measure of auto-immune disease after injection of compound dose of 100 mg/kg in MRL/1 mice; format: functional
Mus musculus [20] = assay: Percent inhibition of anti-DNA antibody was evaluated by ELISA technique as a measure of auto-immune disease after injection of compound dose of 10 mg/kg in MRL/1 mice; format: functional
Mus musculus [21] = assay: Percent inhibition of proteinuria by compound dose of 0.1 mg/kg given perorally to MRL/1 mice; format: functional; conditions: route oral
Mus musculus [22] = assay: Percent inhibition of proteinuria by compound dose of 1 mg/kg given perorally to MRL/1 mice; format: functional; conditions: route oral
Mus musculus [23] = assay: Percent inhibition of anti-DNA antibody was evaluated by ELISA technique as a measure of auto-immune disease after injection of compound dose of 0.1 mg/kg in MRL/1 mice; format: functional
Mus musculus [24] = assay: Percent inhibition of proteinuria by compound dose of 3.2 mg/kg given perorally to MRL/1 mice; format: functional; conditions: route oral
Mus musculus [25] = assay: Percent inhibition of anti-DNA antibody was evaluated by ELISA technique as a measure of auto-immune disease after injection of compound dose of 0.32 mg/kg in MRL/1 mice; format: functional
Mus musculus [26] = assay: Percent inhibition of proteinuria by compound dose of 0.32 mg/kg given perorally to MRL/1 mice; format: functional; conditions: route oral

CSc1ccc2c(c1)c(O)c(C(=O)N(C)C1CCCCC1)c(=O)n2C
inhibition in vivo at 32 mg/kg (Mus musculus [1]): 43%

CCSc1ccc2c(c1)c(O)c(C(=O)N(C)c1ccccc1)c(=O)n2C
inhibition in vivo at 32 mg/kg (Mus musculus [1]): 100%

CSc1ccc2c(c1)c(O)c(C(=O)N(C)c1cccc(C(F)(F)F)c1)c(=O)n2C
inhibition in vivo at 32 mg/kg (Mus musculus [1]): 99%

COCn1c(=O)c(C(=O)N(C)c2ccccc2)c(O)c2cc(SC)ccc21
inhibition in vivo at 32 mg/kg (Mus musculus [1]): 78%

CSc1ccc2c(c1)c(O)c(C(=O)n1ccc3ccccc31)c(=O)n2C
inhibition in vivo at 100 mg/kg (Mus musculus [2]): 48%

CSc1ccc2c(c1)c(O)c(S(=O)(=O)Cc1ccccc1)c(=O)n2C
inhibition in vivo at 100 mg/kg (Mus musculus [2]): -49%

CCn1c(=O)c(C(=O)N(C)c2ccccc2)c(O)c2cc(SC)ccc21
inhibition in vivo at 32 mg/kg (Mus musculus [1]): 83%

CN(C(=O)c1c(O)c2cc(S(C)(=O)=O)ccc2n(C)c1=O)c1ccccc1
inhibition in vivo at 32 mg/kg (Mus musculus [1]): 0%

CSc1ccc2c(c1)c(O)c(C(=O)N(C)c1ccccn1)c(=O)n2C
inhibition in vivo at 32 mg/kg (Mus musculus [1]): 65%

CSc1ccc2c(c1)c(O)c(S(=O)(=O)N(C)c1ccccc1)c(=O)n2C
inhibition in vivo at 32 mg/kg (Mus musculus [1]): 53%

CN(C(=O)c1c(O)c2cc(Oc3ccccc3)ccc2n(C)c1=O)c1ccccc1
inhibition in vivo at 32 mg/kg (Mus musculus [1]): 26%

C[C@]12C=CC(=O)C=C1CCC1[C@@H]2[C@@H](O)C[C@@]2(C)[C@H]1CC[C@]2(O)C(=O)CO (single isomer, unassigned) [PREDNISOLONE]
inhibition in vivo at 0.1 mg/kg (Mus musculus [3]): 53%
inhibition in vivo at 1 mg/kg (Mus musculus [4]): 39%
inhibition in vivo at 1 mg/kg (Mus musculus [5]): 75%
inhibition in vivo at 0.1 mg/kg (Mus musculus [6]): 39%
inhibition in vivo at 10 mg/kg (Mus musculus [7]): 52%
inhibition in vivo at 10 mg/kg (Mus musculus [8]): 100%

CSc1ccc2c(c1)c(O)c(C(=O)C1(c3ccccc3)CC1)c(=O)n2C
inhibition in vivo at 100 mg/kg (Mus musculus [2]): 29%

CN(C(=O)c1c(O)c2cc([S+](C)[O-])ccc2n(C)c1=O)c1ccccc1 (stereo not drawn)
inhibition in vivo at 32 mg/kg (Mus musculus [1]): 100%

CSc1ccc2c(c1)c(O)c(C(=O)c1ccccc1)c(=O)n2C
inhibition in vivo at 100 mg/kg (Mus musculus [2]): 42%

CN(C(=O)c1c(O)c2ccccc2n(C)c1=O)c1ccccc1 [ROQUINIMEX]
inhibition in vivo at 32 mg/kg (Mus musculus [9]): 100%
inhibition in vivo at 1 mg/kg (Mus musculus [10]): 24%
inhibition in vivo at 100 mg/kg (Mus musculus [11]): 37%
inhibition in vivo at 10 mg/kg (Mus musculus [12]): 60%
inhibition in vivo at 32 mg/kg (Mus musculus [13]): 52%
inhibition in vivo at 32 mg/kg (Mus musculus [14]): 36%
inhibition in vivo at 100 mg/kg (Mus musculus [15]): 100%
inhibition in vivo at 10 mg/kg (Mus musculus [7]): -19%
inhibition in vivo at 32 mg/kg (Mus musculus [1]): 86%
inhibition in vivo at 10 mg/kg (Mus musculus [8]): 9%
inhibition in vivo at 100 mg/kg (Mus musculus [2]): 98%
inhibition (Mus musculus [16]): inactive
inhibition in vivo at 3.2 mg/kg (Mus musculus [17]): 35%
inhibition (Mus musculus [18]): inactive
inhibition in vivo at 100 mg/kg (Mus musculus [19]): 76%
inhibition in vivo at 10 mg/kg (Mus musculus [20]): 51%

CSc1ccc2c(c1)c(O)c(C(=O)N(C)c1ccccc1)c(=O)n2Cc1ccccc1
inhibition in vivo at 32 mg/kg (Mus musculus [1]): -66%

CSc1ccc2c(c1)c(O)c(C(=O)Nc1ccccc1)c(=O)n2C
inhibition in vivo at 32 mg/kg (Mus musculus [1]): 24%

CSc1ccc2c(c1)c(O)c(C(=O)N(C)c1ccccc1)c(=O)n2C
inhibition in vivo at 0.1 mg/kg (Mus musculus [21]): 100%
inhibition in vivo at 0.1 mg/kg (Mus musculus [3]): 66%
inhibition in vivo at 1 mg/kg (Mus musculus [10]): 76%
inhibition in vivo at 100 mg/kg (Mus musculus [11]): 94%
inhibition in vivo at 10 mg/kg (Mus musculus [12]): 100%
inhibition in vivo at 1 mg/kg (Mus musculus [22]): 100%
inhibition in vivo at 0.1 mg/kg (Mus musculus [23]): 49%
inhibition in vivo at 3.2 mg/kg (Mus musculus [24]): 100%
inhibition in vivo at 1 mg/kg (Mus musculus [4]): 50%
inhibition in vivo at 1 mg/kg (Mus musculus [5]): 82%
inhibition in vivo at 0.32 mg/kg (Mus musculus [25]): 69%
inhibition in vivo at 0.1 mg/kg (Mus musculus [6]): 41%
inhibition in vivo at 10 mg/kg (Mus musculus [7]): 88%
inhibition in vivo at 32 mg/kg (Mus musculus [1]): 100%
inhibition in vivo at 10 mg/kg (Mus musculus [8]): 100%
inhibition in vivo at 100 mg/kg (Mus musculus [2]): 100%
inhibition in vivo at 3.2 mg/kg (Mus musculus [17]): 88%
inhibition in vivo at 0.32 mg/kg (Mus musculus [26]): 100%
inhibition in vivo at 10 mg/kg (Mus musculus [20]): 93%

CSc1ccc2c(c1)c(O)c(C(=O)N(C)c1ccc(F)cc1)c(=O)n2C
inhibition in vivo at 32 mg/kg (Mus musculus [1]): 100%

CN(C(=O)c1c(O)c2cc(Sc3ccccc3)ccc2n(C)c1=O)c1ccccc1
inhibition in vivo at 32 mg/kg (Mus musculus [1]): 100%

CSc1ccc2nc(O)c(C(=O)N(C)c3ccccc3)c(O)c2c1
inhibition in vivo at 32 mg/kg (Mus musculus [1]): 88%

CNc1c(C(=O)N(C)c2ccccc2)c(=O)n(C)c2ccc(SC)cc12
inhibition in vivo at 32 mg/kg (Mus musculus [1]): 83%

COc1c(C(=O)N(C)c2ccccc2)c(=O)n(C)c2ccc(SC)cc12
inhibition in vivo at 32 mg/kg (Mus musculus [1]): 94%

CCN(C(=O)c1c(O)c2cc(SC)ccc2n(C)c1=O)c1ccccc1
inhibition in vivo at 32 mg/kg (Mus musculus [1]): 89%

COc1ccc(N(C)C(=O)c2c(O)c3cc(SC)ccc3n(C)c2=O)cc1
inhibition in vivo at 32 mg/kg (Mus musculus [1]): 100%

CSc1ccc2c(c1)c(O)c(C(=O)N(C)c1ccc(C)cc1)c(=O)n2C
inhibition in vivo at 32 mg/kg (Mus musculus [1]): 100%

CSc1ccc2c(c1)c(S)c(C(=O)N(C)c1ccccc1)c(=O)n2C
inhibition in vivo at 32 mg/kg (Mus musculus [1]): 19%

CSc1ccc2c(c1)c(N)c(C(=O)N(C)c1ccccc1)c(=O)n2C
inhibition in vivo at 32 mg/kg (Mus musculus [1]): 22%

CSc1ccc2c(c1)c(Cl)c(C(=O)N(C)c1ccccc1)c(=O)n2C
inhibition in vivo at 32 mg/kg (Mus musculus [1]): -1%
